# Test results taken from paper PMC9532703, “A novel small molecule RK-019 inhibits FGFR2-amplification gastric cancer cell proliferation and induces apoptosis in vitro and in vivo” (Frontiers in Pharmacology, 2022).
# Columns and labels:
# Test in all cases: Kinase selectivity panel
# Format in all cases: biochemical
# [1] = biological target: T1, PDK1(h) (Homo sapiens, UniProt O15530); conditions: read-out: Inhibition(%) @ 1 µM RK-019
# T1 construct: purchased Eurofins Discovery Services (KinaseProfiler)
# Method in brief: (§1)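 ATP-site competition binding, in vitro; recombinant human kinase, single concentration 1 µM; % inhibition read-out.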
# [2] = biological target: T2, GRK6(h) (Homo sapiens, UniProt P43250); conditions: read-out: Inhibition(%) @ 1 µM RK-019
# T2 construct: purchased Eurofins Discovery Services (KinaseProfiler)
# Method in brief: as §1
# [3] = biological target: T3, EphA4(h) (Homo sapiens, UniProt P54764); conditions: read-out: Inhibition(%) @ 1 µM RK-019
# T3 construct: purchased Eurofins Discovery Services (KinaseProfiler)
# Method in brief: as §1
# [4] = biological target: T4, SIK(h) (Homo sapiens, UniProt P57059); conditions: read-out: Inhibition(%) @ 1 µM RK-019
# T4 construct: purchased Eurofins Discovery Services (KinaseProfiler)
# Method in brief: as §1
# [5] = biological target: T5, BrSK1(h) (Homo sapiens, UniProt Q8TDC3); conditions: read-out: Inhibition(%) @ 1 µM RK-019
# T5 construct: purchased Eurofins Discovery Services (KinaseProfiler)
# Method in brief: as §1
# [6] = biological target: T6, DMPK(h) (Homo sapiens, UniProt Q09013); conditions: read-out: Inhibition(%) @ 1 µM RK-019
# T6 construct: purchased Eurofins Discovery Services (KinaseProfiler)
# Method in brief: as §1
# [7] = biological target: T7, KDR(h) (Homo sapiens, UniProt P35968); conditions: read-out: Inhibition(%) @ 1 µM RK-019
# T7 construct: purchased Eurofins Discovery Services (KinaseProfiler)
# Method in brief: as §1
# [8] = biological target: T8, HIPK2(h) (Homo sapiens, UniProt Q9H2X6); conditions: read-out: Inhibition(%) @ 1 µM RK-019
# T8 construct: purchased Eurofins Discovery Services (KinaseProfiler)
# Method in brief: as §1
# [9] = biological target: T9, PI3 Kinase (p110a/p85a)(m) (Mus musculus, UniProt P42337); conditions: read-out: Inhibition(%) @ 1 µM RK-019
# T9 construct: purchased Eurofins Discovery Services (KinaseProfiler)
# [10] = biological target: T10, Snk(h) (Homo sapiens, UniProt Q9NYY3); conditions: read-out: Inhibition(%) @ 1 µM RK-019
# T10 construct: purchased Eurofins Discovery Services (KinaseProfiler)
# Method in brief: as §1
# [11] = biological target: T11, FGFR1(h) (Homo sapiens, UniProt P11362)
# T11 construct: purchased Eurofins Discovery Services (KinaseProfiler)
# Method in brief: as §1
# [12] = biological target: T12, SBK1(h) (Homo sapiens, UniProt Q52WX2); conditions: read-out: Inhibition(%) @ 1 µM RK-019
# T12 construct: purchased Eurofins Discovery Services (KinaseProfiler)
# Method in brief: as §1
# [13] = biological target: T13, TAO2(h) (Homo sapiens, UniProt Q9UL54); conditions: read-out: Inhibition(%) @ 1 µM RK-019
# T13 construct: purchased Eurofins Discovery Services (KinaseProfiler)
# Method in brief: as §1
# [14] = biological target: T14, CaMKIß(h) (Homo sapiens, UniProt Q6P2M8); conditions: read-out: Inhibition(%) @ 1 µM RK-019
# T14 construct: purchased Eurofins Discovery Services (KinaseProfiler)
# Method in brief: as §1
# [15] = biological target: T15, ULK1(h) (Homo sapiens, UniProt O75385); conditions: read-out: Inhibition(%) @ 1 µM RK-019
# T15 construct: purchased Eurofins Discovery Services (KinaseProfiler)
# Method in brief: as §1
# [16] = biological target: T16, PKBγ(h) (Homo sapiens, UniProt Q9Y243); conditions: read-out: Inhibition(%) @ 1 µM RK-019
# T16 construct: purchased Eurofins Discovery Services (KinaseProfiler)
# Method in brief: as §1
# [17] = biological target: T17, ChaK1(h) (Homo sapiens, UniProt Q96QT4); conditions: read-out: Inhibition(%) @ 1 µM RK-019
# T17 construct: purchased Eurofins Discovery Services (KinaseProfiler)
# Method in brief: as §1
# [18] = biological target: T18, RIPK2(h) (Homo sapiens, UniProt O43353); conditions: read-out: Inhibition(%) @ 1 µM RK-019
# T18 construct: purchased Eurofins Discovery Services (KinaseProfiler)
# Method in brief: as §1
# [19] = biological target: T19, CDK7/cyclinH/MAT1(h) (Homo sapiens, UniProt P50613); conditions: read-out: Inhibition(%) @ 1 µM RK-019
# T19 construct: purchased Eurofins Discovery Services (KinaseProfiler)
# Method in brief: as §1
# [20] = biological target: T20, TGFBR2(h) (Homo sapiens, UniProt P37173); conditions: read-out: Inhibition(%) @ 1 µM RK-019
# T20 construct: purchased Eurofins Discovery Services (KinaseProfiler)
# Method in brief: as §1
# [21] = biological target: T21, CLK3(h) (Homo sapiens, UniProt P49761); conditions: read-out: Inhibition(%) @ 1 µM RK-019
# T21 construct: purchased Eurofins Discovery Services (KinaseProfiler)
# Method in brief: as §1
# [22] = biological target: T22, TLK2(h) (Homo sapiens, UniProt Q86UE8); conditions: read-out: Inhibition(%) @ 1 µM RK-019
# T22 construct: purchased Eurofins Discovery Services (KinaseProfiler)
# Method in brief: as §1
# [23] = biological target: T23, Fgr(h) (Homo sapiens, UniProt P09769); conditions: read-out: Inhibition(%) @ 1 µM RK-019
# T23 construct: purchased Eurofins Discovery Services (KinaseProfiler)
# Method in brief: as §1
# [24] = biological target: T24, DAPK2(h) (Homo sapiens, UniProt Q9UIK4); conditions: read-out: Inhibition(%) @ 1 µM RK-019
# T24 construct: purchased Eurofins Discovery Services (KinaseProfiler)
# Method in brief: as §1
# [25] = biological target: T25, JNK1α1(h) (Homo sapiens, UniProt P45983); conditions: read-out: Inhibition(%) @ 1 µM RK-019
# T25 construct: purchased Eurofins Discovery Services (KinaseProfiler)
# Method in brief: as §1
# [26] = biological target: T26, TBK1(h) (Homo sapiens, UniProt Q9UHD2); conditions: read-out: Inhibition(%) @ 1 µM RK-019
# T26 construct: purchased Eurofins Discovery Services (KinaseProfiler)
# Method in brief: as §1
# [27] = biological target: T27, PAK1(h) (Homo sapiens, UniProt Q13153); conditions: read-out: Inhibition(%) @ 1 µM RK-019
# T27 construct: purchased Eurofins Discovery Services (KinaseProfiler)
# Method in brief: as §1
# [28] = biological target: T28, HIPK4(h) (Homo sapiens, UniProt Q8NE63); conditions: read-out: Inhibition(%) @ 1 µM RK-019
# T28 construct: purchased Eurofins Discovery Services (KinaseProfiler)
# Method in brief: as §1
# [29] = biological target: T29, PRK2(h) (Homo sapiens, UniProt Q16513); conditions: read-out: Inhibition(%) @ 1 µM RK-019
# T29 construct: purchased Eurofins Discovery Services (KinaseProfiler)
# Method in brief: as §1
# [30] = biological target: T30, CDK14/cyclinY(h) (Homo sapiens, UniProt O94921); conditions: read-out: Inhibition(%) @ 1 µM RK-019
# T30 construct: purchased Eurofins Discovery Services (KinaseProfiler)
# Method in brief: as §1
# [31] = biological target: T31, TSSK2(h) (Homo sapiens, UniProt Q96PF2); conditions: read-out: Inhibition(%) @ 1 µM RK-019
# T31 construct: purchased Eurofins Discovery Services (KinaseProfiler)
# Method in brief: as §1
# [32] = biological target: T32, EphA8(h) (Homo sapiens, UniProt P29322); conditions: read-out: Inhibition(%) @ 1 µM RK-019
# T32 construct: purchased Eurofins Discovery Services (KinaseProfiler)
# Method in brief: as §1
# [33] = biological target: T33, cSRC(h) (Homo sapiens, UniProt P12931); conditions: read-out: Inhibition(%) @ 1 µM RK-019
# T33 construct: purchased Eurofins Discovery Services (KinaseProfiler)
# Method in brief: as §1
# [34] = biological target: T34, Flt4(h) (Homo sapiens, UniProt P35916)
# T34 construct: purchased Eurofins Discovery Services (KinaseProfiler)
# Method in brief: as §1
# [35] = biological target: T35, PRK1(h) (Homo sapiens, UniProt Q16512); conditions: read-out: Inhibition(%) @ 1 µM RK-019
# T35 construct: purchased Eurofins Discovery Services (KinaseProfiler)
# Method in brief: as §1
# [36] = biological target: T36, MSK1(h) (Homo sapiens, UniProt O75582); conditions: read-out: Inhibition(%) @ 1 µM RK-019
# T36 construct: purchased Eurofins Discovery Services (KinaseProfiler)
# Method in brief: as §1
# T34 sequence (P35916 25-1363): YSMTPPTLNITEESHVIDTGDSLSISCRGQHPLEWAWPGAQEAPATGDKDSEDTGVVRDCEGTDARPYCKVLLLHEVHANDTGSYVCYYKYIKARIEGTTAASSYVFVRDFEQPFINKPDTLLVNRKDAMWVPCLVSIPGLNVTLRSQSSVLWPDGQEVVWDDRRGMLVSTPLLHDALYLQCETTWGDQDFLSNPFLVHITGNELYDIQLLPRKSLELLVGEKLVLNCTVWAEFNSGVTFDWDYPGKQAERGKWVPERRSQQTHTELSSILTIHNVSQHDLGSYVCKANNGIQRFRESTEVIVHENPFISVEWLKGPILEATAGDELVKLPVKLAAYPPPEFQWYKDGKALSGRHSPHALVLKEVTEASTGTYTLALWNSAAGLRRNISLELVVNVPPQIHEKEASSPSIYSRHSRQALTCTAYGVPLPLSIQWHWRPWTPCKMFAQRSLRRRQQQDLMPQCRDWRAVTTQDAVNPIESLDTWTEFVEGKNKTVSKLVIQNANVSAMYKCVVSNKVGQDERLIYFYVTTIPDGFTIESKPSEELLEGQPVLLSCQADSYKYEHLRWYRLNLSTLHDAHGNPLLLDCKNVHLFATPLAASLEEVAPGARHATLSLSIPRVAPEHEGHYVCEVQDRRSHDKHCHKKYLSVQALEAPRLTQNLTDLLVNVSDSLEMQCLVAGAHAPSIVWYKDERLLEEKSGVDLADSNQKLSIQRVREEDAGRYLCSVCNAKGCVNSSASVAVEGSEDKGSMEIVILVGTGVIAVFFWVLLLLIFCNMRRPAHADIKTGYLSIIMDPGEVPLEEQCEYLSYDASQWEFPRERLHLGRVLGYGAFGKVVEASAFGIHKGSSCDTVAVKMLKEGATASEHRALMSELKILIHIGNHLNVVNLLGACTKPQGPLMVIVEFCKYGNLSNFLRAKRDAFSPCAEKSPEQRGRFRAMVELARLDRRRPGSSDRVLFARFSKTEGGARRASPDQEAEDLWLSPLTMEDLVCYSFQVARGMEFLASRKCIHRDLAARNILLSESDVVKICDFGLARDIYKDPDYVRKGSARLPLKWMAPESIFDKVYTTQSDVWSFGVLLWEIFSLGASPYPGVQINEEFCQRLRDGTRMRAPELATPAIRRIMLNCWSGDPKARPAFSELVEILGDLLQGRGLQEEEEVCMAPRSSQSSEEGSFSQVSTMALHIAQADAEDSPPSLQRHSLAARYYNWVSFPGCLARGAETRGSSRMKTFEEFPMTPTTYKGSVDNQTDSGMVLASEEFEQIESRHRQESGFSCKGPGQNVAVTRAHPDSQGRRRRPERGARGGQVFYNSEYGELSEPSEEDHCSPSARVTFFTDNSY
# T11 sequence (P11362 22-822): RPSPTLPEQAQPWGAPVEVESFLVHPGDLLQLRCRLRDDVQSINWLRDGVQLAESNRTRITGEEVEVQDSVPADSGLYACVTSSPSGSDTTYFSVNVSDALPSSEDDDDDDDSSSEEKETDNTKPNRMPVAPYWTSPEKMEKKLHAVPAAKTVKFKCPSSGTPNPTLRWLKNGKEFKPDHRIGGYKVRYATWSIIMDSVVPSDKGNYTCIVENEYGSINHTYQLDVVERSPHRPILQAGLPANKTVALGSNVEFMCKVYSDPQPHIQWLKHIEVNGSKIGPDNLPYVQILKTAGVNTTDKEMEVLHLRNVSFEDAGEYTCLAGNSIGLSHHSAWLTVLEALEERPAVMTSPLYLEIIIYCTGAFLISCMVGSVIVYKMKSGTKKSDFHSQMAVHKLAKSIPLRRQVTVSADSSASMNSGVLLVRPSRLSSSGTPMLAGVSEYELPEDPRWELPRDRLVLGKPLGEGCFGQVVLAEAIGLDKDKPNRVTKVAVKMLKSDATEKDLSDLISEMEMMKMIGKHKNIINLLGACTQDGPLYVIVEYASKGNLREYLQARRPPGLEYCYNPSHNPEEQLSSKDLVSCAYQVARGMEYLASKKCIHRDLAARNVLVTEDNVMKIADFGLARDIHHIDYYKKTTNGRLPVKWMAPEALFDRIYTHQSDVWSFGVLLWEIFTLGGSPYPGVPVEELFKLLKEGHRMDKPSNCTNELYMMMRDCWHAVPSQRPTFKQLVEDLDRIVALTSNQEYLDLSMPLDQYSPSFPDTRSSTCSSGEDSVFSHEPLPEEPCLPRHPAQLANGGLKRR
# T32 sequence (P29322 28-1005): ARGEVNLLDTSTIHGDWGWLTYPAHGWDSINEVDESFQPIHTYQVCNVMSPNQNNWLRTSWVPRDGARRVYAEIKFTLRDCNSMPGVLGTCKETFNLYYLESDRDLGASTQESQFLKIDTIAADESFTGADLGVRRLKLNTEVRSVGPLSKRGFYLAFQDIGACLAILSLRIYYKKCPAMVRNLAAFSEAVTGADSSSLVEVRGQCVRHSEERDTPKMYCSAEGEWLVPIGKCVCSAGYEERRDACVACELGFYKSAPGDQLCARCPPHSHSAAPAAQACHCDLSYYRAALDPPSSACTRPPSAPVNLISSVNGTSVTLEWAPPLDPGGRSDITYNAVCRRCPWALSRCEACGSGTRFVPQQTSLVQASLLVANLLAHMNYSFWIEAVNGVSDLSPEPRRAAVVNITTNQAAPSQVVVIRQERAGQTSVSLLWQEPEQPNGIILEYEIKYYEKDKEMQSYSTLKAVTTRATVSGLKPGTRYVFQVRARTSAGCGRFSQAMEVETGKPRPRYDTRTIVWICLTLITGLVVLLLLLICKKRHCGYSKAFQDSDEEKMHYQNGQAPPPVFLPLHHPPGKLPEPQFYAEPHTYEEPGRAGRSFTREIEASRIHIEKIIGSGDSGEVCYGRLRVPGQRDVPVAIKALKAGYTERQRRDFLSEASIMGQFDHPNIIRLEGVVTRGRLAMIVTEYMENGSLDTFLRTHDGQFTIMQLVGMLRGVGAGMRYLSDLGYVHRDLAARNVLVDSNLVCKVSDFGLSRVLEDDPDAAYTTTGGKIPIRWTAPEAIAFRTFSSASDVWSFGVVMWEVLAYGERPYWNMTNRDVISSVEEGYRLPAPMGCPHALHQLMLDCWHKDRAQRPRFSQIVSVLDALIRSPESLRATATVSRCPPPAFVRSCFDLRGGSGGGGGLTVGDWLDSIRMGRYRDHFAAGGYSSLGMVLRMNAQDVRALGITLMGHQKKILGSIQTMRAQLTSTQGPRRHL
# T33 sequence (P12931 whole entry): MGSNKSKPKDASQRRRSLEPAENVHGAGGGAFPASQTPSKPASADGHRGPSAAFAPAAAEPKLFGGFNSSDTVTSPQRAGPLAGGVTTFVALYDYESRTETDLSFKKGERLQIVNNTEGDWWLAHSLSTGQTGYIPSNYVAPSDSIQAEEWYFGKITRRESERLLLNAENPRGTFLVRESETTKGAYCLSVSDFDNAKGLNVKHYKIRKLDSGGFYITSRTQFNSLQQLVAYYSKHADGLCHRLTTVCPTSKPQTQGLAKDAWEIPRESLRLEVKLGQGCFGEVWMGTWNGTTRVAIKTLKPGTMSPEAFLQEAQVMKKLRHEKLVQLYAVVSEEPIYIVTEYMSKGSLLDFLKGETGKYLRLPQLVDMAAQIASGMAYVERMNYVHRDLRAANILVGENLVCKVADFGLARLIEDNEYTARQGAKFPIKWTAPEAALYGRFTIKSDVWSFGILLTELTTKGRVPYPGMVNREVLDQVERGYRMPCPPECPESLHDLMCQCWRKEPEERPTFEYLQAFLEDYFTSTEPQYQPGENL
# T27 sequence (Q13153 whole entry): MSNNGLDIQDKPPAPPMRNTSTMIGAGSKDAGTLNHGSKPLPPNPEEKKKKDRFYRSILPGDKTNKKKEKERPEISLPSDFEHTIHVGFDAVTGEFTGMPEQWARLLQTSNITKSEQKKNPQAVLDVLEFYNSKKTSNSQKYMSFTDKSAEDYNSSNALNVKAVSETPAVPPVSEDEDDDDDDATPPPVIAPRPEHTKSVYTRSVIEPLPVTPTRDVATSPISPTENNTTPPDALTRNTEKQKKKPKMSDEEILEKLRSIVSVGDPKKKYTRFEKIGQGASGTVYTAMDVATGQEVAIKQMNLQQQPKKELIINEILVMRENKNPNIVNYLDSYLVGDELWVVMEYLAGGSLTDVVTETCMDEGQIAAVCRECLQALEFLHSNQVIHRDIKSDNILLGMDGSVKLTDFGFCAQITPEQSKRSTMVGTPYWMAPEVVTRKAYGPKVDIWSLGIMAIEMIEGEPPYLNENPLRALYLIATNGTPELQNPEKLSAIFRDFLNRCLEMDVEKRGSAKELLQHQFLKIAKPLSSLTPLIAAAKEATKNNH
# T25 sequence (P45983 1-384 isoform P45983-2): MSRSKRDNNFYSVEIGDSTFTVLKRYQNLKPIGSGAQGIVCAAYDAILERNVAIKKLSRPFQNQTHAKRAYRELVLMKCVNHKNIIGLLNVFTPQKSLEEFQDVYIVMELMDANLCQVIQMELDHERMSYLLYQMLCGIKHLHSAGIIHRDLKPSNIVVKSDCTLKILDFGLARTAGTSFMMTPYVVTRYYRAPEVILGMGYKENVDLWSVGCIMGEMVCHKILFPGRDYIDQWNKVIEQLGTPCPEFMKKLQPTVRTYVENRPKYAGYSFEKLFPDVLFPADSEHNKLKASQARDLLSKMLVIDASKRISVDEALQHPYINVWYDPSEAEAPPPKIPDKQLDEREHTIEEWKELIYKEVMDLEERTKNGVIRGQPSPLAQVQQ
# T12 sequence (Q52WX2 whole entry): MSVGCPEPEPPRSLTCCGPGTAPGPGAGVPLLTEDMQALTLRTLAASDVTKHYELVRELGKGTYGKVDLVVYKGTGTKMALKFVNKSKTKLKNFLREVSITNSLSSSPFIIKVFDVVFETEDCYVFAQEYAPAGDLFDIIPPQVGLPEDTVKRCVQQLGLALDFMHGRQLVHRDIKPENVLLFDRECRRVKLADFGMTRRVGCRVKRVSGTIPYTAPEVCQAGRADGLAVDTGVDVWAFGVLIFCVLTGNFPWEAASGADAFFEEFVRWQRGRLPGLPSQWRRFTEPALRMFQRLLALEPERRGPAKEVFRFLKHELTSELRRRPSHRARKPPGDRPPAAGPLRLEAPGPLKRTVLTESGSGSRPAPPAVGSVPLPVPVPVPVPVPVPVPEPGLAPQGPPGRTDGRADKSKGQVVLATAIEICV
smiles,measurement,setting,value
"COc1cc(OC)cc(N(CCN[C@H](C)CO)c2ccc3ncc(-c4cnn(C)c4)c(=O)n3c2)c1 [RK-019, (R)-7-((3,5-dimethoxyphenyl) (2-((1-hydroxypropan-2-yl)amino)ethyl)amino)-3-(1-methyl-1H-pyrazol-4-yl)-4H-pyrido [1,2-a]pyrimidin-4-one]",activity at 1 µM,[1],110%
same,activity at 1 µM,[2],114%
same,activity at 1 µM,[3],101%
same,activity at 1 µM,[4],89%
same,activity at 1 µM,[5],106%
same,activity at 1 µM,[6],98%
same,activity at 1 µM,[7],9%
same,activity at 1 µM,[8],83%
same,activity at 1 µM,[9],101%
same,activity at 1 µM,[10],109%
same,activity at 1 µM,"[11]; FGFR1(h), read-out: Inhibition(%) @ 1 µM RK-019",-1%
same,inhibition at 1 µM,"[11]; FGFR1, 1 µM, read-out: inhibition (hit in panel)",> 90%
same,activity at 1 µM,[12],96%
same,activity at 1 µM,[13],95%
same,activity at 1 µM,[14],97%
same,activity at 1 µM,[15],105%
same,activity at 1 µM,[16],94%
same,activity at 1 µM,[17],100%
same,activity at 1 µM,[18],46%
same,activity at 1 µM,[19],108%
same,activity at 1 µM,[20],85%
same,activity at 1 µM,[21],102%
same,activity at 1 µM,[22],124%
same,activity at 1 µM,[23],54%
same,activity at 1 µM,[24],97%
same,activity at 1 µM,[25],96%
same,activity at 1 µM,[26],101%
same,activity at 1 µM,[27],102%
same,activity at 1 µM,[28],100%
same,activity at 1 µM,[29],106%
same,activity at 1 µM,[30],91%
same,activity at 1 µM,[31],91%
same,activity at 1 µM,[32],59%
same,activity at 1 µM,[33],54%
same,inhibition at 1 µM,"[34]; FLT4, 1 µM, read-out: inhibition (hit in panel)",> 90%
same,activity at 1 µM,"[34]; Flt4(h), read-out: Inhibition(%) @ 1 µM RK-019",3%
same,activity at 1 µM,[35],105%
same,activity at 1 µM,[36],95%
